Measured values taken from publication PMC9321663, “The DevTox Germ Layer Reporter Platform: An Assay Adaptation of the Human Pluripotent Stem Cell Test” (Toxics, 2022).
Read-outs that look alike come from different tables or passages of the source.

Key:
RUES2-GLR cells = experiment: DevTox GLR-Endo assay: decrease in total cell count, cytotoxicity (AEID 3098, CellCount_dn); conditions: for Emax: Homo sapiens, read-out: Cell Count % Max Inhibition
[1] = tested on: SOX17 (endoderm marker) in RUES2-GLR cells; experiment: DevTox GLR-Endo assay: decrease in percent SOX17-positive cells (AEID 3094, Sox17_dn); conditions: for Hit Call: Table S2, SOX17-positive cells, cutoff 3*bmad; for HIT−CALL: tcpl plot AEID3094, COFF 20.3; for DevTox ACC: Table S2, percent SOX17-positive cells; for DevTox-GLR Endo ACC: activity concentration at cutoff, SOX17-positive cells; for ga (winning model): tcpl plot AEID3094, gain parameter of winning curve fit (log concentration, µM axis); for ga (winning model) / tp (winning model): hit calls only; for MAX_MEAN: tcpl plot AEID3094, maximum mean response; for tp (winning model): tcpl plot AEID3094, top of winning curve fit (Hill or gain-loss); for hit call designation (in words): DevTox GLR-Endo prediction against developmental toxicant classification; for effect on SOX17-positive cells (in words): 48 h exposure during directed endoderm differentiation
Summary of the method: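 Readouts are loss of SOX17-positive fraction and reduced cell number in endoderm-differentiating RUES2-GLR cells after 48 h of chemical exposure. Controls: undifferentiated and differentiated cells, 0.2% DMSO, and 1 µM SB431542; at least four biological replicates.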

[2] = tested on: SOX2 (ectoderm and pluripotency marker) in RUES2-GLR cells; experiment: DevTox GLR-Endo assay: increase in percent SOX2-positive cells (AEID 3095, Sox2_up); conditions: for AC50 / Emax: Homo sapiens; for AC50: read-out: ga (winning model); for Emax: read-out: tp (winning model); for MAX_MEAN: tcpl plot AEID3095, maximum mean response; for MAX_MED: tcpl plot AEID3095, maximum median response;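 as to all read-outs here: cells exposed to test chemicals for 48 h in total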
[3] = tested on: BRA (mesoderm marker) in RUES2-GLR cells; experiment: DevTox GLR-Endo assay: increase in percent BRA-positive cells (AEID 3096, Bra_up); assay type: cell-based, human; conditions: for HIT−CALL: tcpl plot AEID3096, COFF 0.774; for MAX_MEAN: tcpl plot AEID3096, maximum mean response; for MAX_MED: tcpl plot AEID3096, maximum median response
Procedure: (§1) The total test chemical incubation period was 48 h.
(§2) (Supplementary Materials).

[4] = tested on: SOX17 (endoderm marker) in RUES2-GLR cells; experiment: DevTox GLR-Endo assay: increase in percent SOX17-positive cells (AEID 3093, Sox17_up); assay type: cell-based, human; conditions: for Emax: Homo sapiens; for HIT−CALL: tcpl plot AEID3093, COFF 20.3
Procedure: as §1, §2

[5] = tested on: o/c ratio in H9 embryonic stem cells; conditions: Teratogen Index, o/c ratio; cited from earlier work
[6] = DevTox GLR-Endo assay: decrease in total cell count, cytotoxicity (AEID 3098, CellCount_dn); conditions: human, RUES2-GLR cells under directed endoderm differentiation
[7] = tested on: SOX17 in H9 human ESC line; conditions: SOX17 half-maximal inhibition concentration; read-out: hPST IC50; cited from earlier work
H9 human ESC line = conditions: cited from earlier work
[8] = cited from earlier work; for Development Toxicant Classification: Table S2; for Classification: developmental toxicant classification (Teratogen / Non-Teratogen) of reference and training chemicals, ref DOI per chemical: 10.1093/toxsci/kft239, 10.1093/toxsci/kfaa014, 10.1177/026119290203000204, 10.1038/s41598-020-59542-x; for DT Class.: developmental toxicant classification
[9] = Homo sapiens, read-out: ga (winning model), tcpl plot AEID3094, gain parameter of winning curve fit (log concentration, µM axis), hit calls only (converted)
[10] = Homo sapiens, read-out: tp (winning model)
[11] = tcpl plot AEID3093, maximum mean response, read-out: MAX_MEAN
[12] = tcpl plot AEID3093, maximum median response, read-out: MAX_MED
[13] = Homo sapiens, 48 h, read-out: DevTox-GLR Endo AC50 (µM), SOX17 half-maximal activity concentration, 48 h exposure
[14] = Homo sapiens, read-out: DevTox % Max Inhibition
[15] = Homo sapiens, read-out: MAX_MEAN
[16] = Homo sapiens, read-out: MAX_MED
[17] = cytotoxicity half-maximal concentration
[18] = chemicals common with quickPredict
[19] = tcpl plot AEID3093, maximum mean response
[20] = tcpl plot AEID3093, maximum median response

Cell Count ACC (RUES2-GLR cells; human, 48 h) | Compound | Emax (RUES2-GLR cells) | AC50 [1, 9] | Emax [1, 10] | Hit Call [1] | HIT−CALL [1] | MAX_MEAN [2] | MAX_MED [2] | HIT−CALL [3] | MAX_MEAN [3] | MAX_MED [3] | Emax [4, 11] | Emax [4, 12] | HIT−CALL [4] | quickPredict TI [5] | Emax [1, 14] | Emax [1, 15] | DevTox ACC ([1]; 48 h exposure) | Classification [8] | DT Class. [8, 18] | also measured
 | CN(C)CCOC(c1ccccc1)c1ccccc1 [Diphenhydramine] | 78.9% | 61.7 µM | 117% | Positive | 1 | 2.92 Percent Activity | 1.57 Percent Activity | 1 | 1.61 Percent Activity | 1.58 Percent Activity | -0.267% | -1.82% | 0 | 0.588 µM |  |  |  |  |  | AC50 [2]: 631 µM; Emax [2]: 2.12%
57.7753 µM | NC(=O)N1c2ccccc2C=Cc2ccccc21 [Carbamazepine] | 39.1% | 102 µM | 65.3% | Positive | 1 | 0.534 Percent Activity | 0.576 Percent Activity | 1 | 1.14 Percent Activity | 1.04 Percent Activity | 12.3% | 12.1% | 0 | 2.29 µM | 52.2% | 52.1% | 64.024 µM | Teratogen | Pos | CC50 at 48 h [6]: 137 µM; DevTox-GLR Endo CC (RUES2-GLR cells; human, 48 h): 57.78 µM; AC50 [1, 13]: 103 µM; Emax [1, 16]: 52.2%; DevTox-GLR Endo ACC ([1]; 48 h exposure): 64.02 µM; IC50 [7]: 0.08 µM; hPST TC50 (H9 human ESC line; [17]): 0.19 µM; hPST TC50 (H9 human ESC line; hPST cytotoxicity): 0.19 µM; Development Toxicant Classification [8]: Positive; DT Class. ([8]; chemicals common with hPST): Pos
 | CCCCC(CC)COC(=O)c1ccccc1C(=O)O (stereo not drawn) [MEHP] |  |  |  | Positive | 1 | 1.85 Percent Activity | 1.77 Percent Activity | 0 | 1.95 Percent Activity | 1.69 Percent Activity |  |  | 0 | 167 µM |  |  | 76.3285 µM |  |  | Cell Count ACC (RUES2-GLR cells): 61.5464 µM; DevTox-GLR Endo CC (RUES2-GLR cells): 61.55 µM; Cell Count % Max Inhibition (RUES2-GLR cells; Table S2, cell count relative to DMSO): 76.1511%; DevTox % Max Inhibition ([1]; Table S2, percent SOX17-positive cells relative to DMSO): 67.6802%; DevTox-GLR Endo ACC ([1]; 48 h exposure): 76.33 µM; ga (winning model) [1]: 2.11; MAX_MEAN [1]: 65.4 Percent Activity; MAX_MED ([1]; tcpl plot AEID3094, maximum median response): 67.7 Percent Activity; tp (winning model) [1]: 89.3; MAX_MEAN [4, 19]: 6.64 Percent Activity; MAX_MED [4, 20]: 12.4 Percent Activity
90.2805 µM | Cc1cn([C@H]2C=C[C@@H](CO)O2)c(=O)[nH]c1=O [Stavudine] | 23.9% |  |  | Negative | 0 | 1.54 Percent Activity | 0.512 Percent Activity | 1 | 1.06 Percent Activity | 1.06 Percent Activity | 8.07% | 10.6% | 0 | 32.5 µM | 11.4% | 13.5% | >200 µM | Teratogen | Pos | effect on cell count (in words) (RUES2-GLR cells): significant decreases in cell count; DevTox-GLR Endo CC (RUES2-GLR cells; human, 48 h): 90.28 µM; effect on cell count (in words) (RUES2-GLR cells; human, 48 h): significant cell loss that did not impact SOX17-positive populations; hit call designation (in words) [1]: false negative; Emax [1, 16]: 11.4%; Emax ([1]; Homo sapiens, read-out: maximum observed effect level class (% max inhibition)): 0 to 20%; Development Toxicant Classification [8]: Positive
>200 µM | O=C1CCC(N2C(=O)c3ccccc3C2=O)C(=O)N1 (stereo not drawn) [Thalidomide] | 19.5% | 1.64 µM | 81.4% | Positive | 1 | 0.64 Percent Activity | 0.473 Percent Activity | 0 | 0.925 Percent Activity | 0.968 Percent Activity | 4.62% | 3.35% | 0 | 1.27 µM | 79.1% | 78% | 0.2523 µM | Teratogen | Pos | CC50 at 48 h [6]: > 200 µM; effect on cell counts (in words) (RUES2-GLR cells): cell counts remained constant; effect on SOX17-positive cells (in words) [1]: significant reductions in the SOX17-positive sub-population; effect on SOX17-positive cells (in words) ([1]; listed as thalidomide): concentration-dependent loss of SOX17-positive cells; IC50 ([1]; Homo sapiens, 48 h): 1.71 µM; AC50 [1, 13]: 1.64 µM; Emax [1, 16]: 79.1%; DevTox-GLR Endo ACC ([1]; 48 h exposure): 0.25 µM; % Max Inhibition ([1]; maximum inhibition of SOX17-positive cells, reference chemical testing, 48 h exposure): 58%; IC50 [7]: 0.5 µM; hPST TC50 (H9 human ESC line; [17]): >200 µM; hPST TC50 (H9 human ESC line; hPST cytotoxicity): > 200 µM; Development Toxicant Classification [8]: Positive; DT Class. ([8]; chemicals common with hPST): Pos; Developmental Toxicant Classification ([8]; reference chemicals): Positive
 | C[C@@H]1C[C@H]2[C@@H]3CCC4=CC(=O)C=C[C@]4(C)[C@@]3(F)[C@@H](O)C[C@]2(C)[C@@]1(O)C(=O)CO [Dexamethasone] |  |  |  | Negative | 1 | 0.622 Percent Activity | 0.482 Percent Activity | 0 | 0.923 Percent Activity | 0.979 Percent Activity |  |  | 0 | 37.7 µM |  |  | >200 µM | Teratogen | Pos | Cell Count ACC (RUES2-GLR cells): 13.83 µM; DevTox-GLR Endo CC (RUES2-GLR cells): 13.83 µM; effect on cell count (in words) (RUES2-GLR cells): significant cell loss that did not impact SOX17-positive populations; hit call designation (in words) [1]: borderline calls; ga (winning model) [1]: −6.88; MAX_MEAN [1]: 20.7 Percent Activity; tp (winning model) [1]: 41.8; MAX_MEAN [4, 19]: −0.0942 Percent Activity; MAX_MED [4, 20]: 0.457 Percent Activity; Development Toxicant Classification [8]: Positive
0.05231 µM | Nc1ccn([C@@H]2O[C@H](CO)[C@@H](O)[C@@H]2O)c(=O)n1 [Cytarabine] | 86.7% | 0.557 µM | 102% | Positive | 1 | 2.89 Percent Activity | 2.91 Percent Activity |  |  |  | 12.2% | 12.7% | 0 | 0.054 µM | 102% | 102% | 0.4557 µM | Teratogen | Pos | effect on cell count (in words) (RUES2-GLR cells): significant decreases in cell count; DevTox-GLR Endo CC (RUES2-GLR cells; human, 48 h): 0.05 µM; Emax [1, 16]: 102%; DevTox-GLR Endo ACC ([1]; 48 h exposure): 0.46 µM; AC50 [2]: 0.582 µM; Emax [2]: 2.27%
0.7145 µM | CC[C@H](C)C(=O)O[C@H]1C[C@@H](C)C=C2C=C[C@H](C)[C@H](CC[C@@H]3C[C@@H](O)CC(=O)O3)[C@H]21 [Lovastatin] | 95.4% | 11.2 µM | 123% | Positive | 1 | 21.1 Percent Activity | 14.8 Percent Activity |  |  |  | -9.76% | -10.1% | 0 | 5.1 µM | 102% | 102% | 0.9345 µM | Teratogen | Pos | DevTox-GLR Endo CC (RUES2-GLR cells; human, 48 h): 0.71 µM; Emax [1, 16]: 102%; DevTox-GLR Endo ACC ([1]; 48 h exposure): 0.93 µM; AC50 [2]: 36.3 µM; Emax [2]: 13.5%; Development Toxicant Classification [8]: Positive
